Reference: ChEMBL document CHEMBL3217736, “Novel aspects in structureactivity relationships of profiled 1-aza-9-oxafluorenes as inhibitors of Alzheimer's disease-relevant kinases cdk1, cdk5 and gsk3” (Medchemcomm, 2012)
pKi: −log10 of the molar value. Calls of active or inactive are those of the source. No cut-off for these calls is given here.

How the values were obtained:
[1] = molecular target: Cyclin-dependent kinase 1/cyclin B1 (Homo sapiens, UniProt P06493); experiment: (§1) Inhibition of human recombinant GST-fused CDK1/cyclin B expressed in insect Sf9 cells using RBER-CHKtide as substrate assessed as incorporation of 33Pi after 60 mins by microplate scintillation counting analysis
[2] = molecular target: Cyclin-dependent kinase 5/CDK5 activator 1 (Homo sapiens, UniProt Q00535); experiment: (§2) Inhibition of human recombinant GST-fused CDK5/P25 expressed in insect Sf9 cells using RBER-CHKtide as substrate assessed as incorporation of 33Pi after 60 mins by microplate scintillation counting analysis
[3] = molecular target: Glycogen synthase kinase-3 beta (Homo sapiens, UniProt P49841); experiment: Inhibition of human recombinant GST-fused GSK-3beta expressed in insect Sf9 cells using RBER-CHKtide as substrate assessed as incorporation of 33Pi after 60 mins by microplate scintillation counting analysis; details: for pKi: read-out: Ki; for Ki: sf9
[4] = molecular target: Cyclin-dependent kinase 1/cyclin B1 (Homo sapiens) (UniProt P06493+P14635); experiment: as §1
[5] = molecular target: Cyclin-dependent kinase 5/CDK5 activator 1 (Homo sapiens) (UniProt Q00535+Q15078); experiment: as §2
Cyclin-dependent kinase 5/CDK5 activator 1 (Homo sapiens), sequence (Q00535 whole entry): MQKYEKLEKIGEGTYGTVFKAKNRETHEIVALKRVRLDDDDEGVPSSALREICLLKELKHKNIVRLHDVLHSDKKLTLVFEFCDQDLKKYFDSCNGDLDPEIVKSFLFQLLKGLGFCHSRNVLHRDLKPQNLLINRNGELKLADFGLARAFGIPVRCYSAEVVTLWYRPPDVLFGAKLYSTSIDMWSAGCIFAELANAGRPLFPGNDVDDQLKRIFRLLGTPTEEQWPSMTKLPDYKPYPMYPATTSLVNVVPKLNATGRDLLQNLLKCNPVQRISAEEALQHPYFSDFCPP
Cyclin-dependent kinase 5/CDK5 activator 1 (Homo sapiens), sequence (Q15078 99-307 partner limits assumed): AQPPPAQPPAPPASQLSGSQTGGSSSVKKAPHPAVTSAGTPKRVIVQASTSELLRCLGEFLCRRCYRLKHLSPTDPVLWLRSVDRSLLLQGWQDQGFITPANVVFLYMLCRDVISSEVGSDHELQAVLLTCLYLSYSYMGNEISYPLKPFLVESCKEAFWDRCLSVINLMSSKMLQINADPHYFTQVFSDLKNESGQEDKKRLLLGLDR

Cyclin-dependent kinase 1/cyclin B1, sequence (P06493 whole entry, the tested form may be a part): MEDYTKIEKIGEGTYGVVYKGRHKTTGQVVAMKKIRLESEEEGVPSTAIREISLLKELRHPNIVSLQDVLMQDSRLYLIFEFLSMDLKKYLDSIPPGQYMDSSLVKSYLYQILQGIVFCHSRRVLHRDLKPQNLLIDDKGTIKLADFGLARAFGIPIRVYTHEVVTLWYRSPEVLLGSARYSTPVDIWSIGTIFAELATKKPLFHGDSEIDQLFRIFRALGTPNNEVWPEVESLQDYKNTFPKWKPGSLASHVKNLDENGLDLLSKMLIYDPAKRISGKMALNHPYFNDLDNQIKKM
Cyclin-dependent kinase 1/cyclin B1, sequence (P14635 whole entry, further chain, the tested form may be a part): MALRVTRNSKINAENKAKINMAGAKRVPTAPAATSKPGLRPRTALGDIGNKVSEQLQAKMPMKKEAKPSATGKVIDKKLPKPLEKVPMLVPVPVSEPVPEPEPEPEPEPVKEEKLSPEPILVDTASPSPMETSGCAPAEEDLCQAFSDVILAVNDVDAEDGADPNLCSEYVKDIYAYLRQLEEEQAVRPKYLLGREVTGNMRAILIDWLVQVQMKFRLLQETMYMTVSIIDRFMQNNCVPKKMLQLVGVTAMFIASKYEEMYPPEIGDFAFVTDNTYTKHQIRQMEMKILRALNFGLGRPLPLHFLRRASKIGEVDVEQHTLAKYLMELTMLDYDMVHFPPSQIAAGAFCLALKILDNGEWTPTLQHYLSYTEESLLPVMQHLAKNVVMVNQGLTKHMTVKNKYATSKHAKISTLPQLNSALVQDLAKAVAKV
Cyclin-dependent kinase 5/CDK5 activator 1, sequence (Q00535 whole entry, the tested form may be a part): as the sequence (Q00535 whole entry) above
Cyclin-dependent kinase 5/CDK5 activator 1, sequence (Q15078 whole entry, further chain, the tested form may be a part): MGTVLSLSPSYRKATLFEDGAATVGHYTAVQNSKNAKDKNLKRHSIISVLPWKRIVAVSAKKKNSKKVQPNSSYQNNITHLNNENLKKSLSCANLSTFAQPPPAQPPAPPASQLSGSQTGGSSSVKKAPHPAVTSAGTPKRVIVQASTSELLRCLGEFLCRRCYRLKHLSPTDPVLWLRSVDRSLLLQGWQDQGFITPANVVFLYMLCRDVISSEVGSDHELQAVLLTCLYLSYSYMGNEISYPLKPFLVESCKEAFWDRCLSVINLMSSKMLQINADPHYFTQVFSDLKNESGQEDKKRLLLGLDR
Cyclin-dependent kinase 1/cyclin B1 (Homo sapiens), sequence (P06493 whole entry, looked up): as the sequence (P06493 whole entry, the tested form may be a part) above
Cyclin-dependent kinase 1/cyclin B1 (Homo sapiens), sequence (P14635 whole entry, looked up): as the sequence (P14635 whole entry, further chain, the tested form may be a part) above

pKi [1]	pKi [2]	pKi [3]	Ki [3]	inhibition [4]	inhibition [5]	inhibition [3]	SMILES
5.72	4.86		ND(Insoluble)				COc1cc2oc3ncc(OCc4ccccc4)c(-c4ccccc4)c3c2cc1O
< 3.00	< 3.00	< 3.00					COc1cc2c(oc3ncc(OCc4ccccc4)c(-c4ccccc4)c32)c2ccccc12
				Active	Active	Active	Oc1ccc2oc3ncc(OCc4ccccc4)c(-c4ccccc4)c3c2c1

Further lines, the molecule ahead of its results:

SMILES	pKi [1]	pKi [2]	pKi [3]	Ki [3]	inhibition [4]	inhibition [5]	inhibition [3]
NCCNC(=O)c1cnc2oc3ccc(O)cc3c2c1-c1ccccc1	5.70	4.89	5.32				
CCCNC(=O)c1cnc2oc3ccc(O)cc3c2c1-c1ccccc1	5.80	4.84	5.36				
CNC(=O)c1cnc2oc3ccc(O)cc3c2c1-c1ccccc1	< 3.00	< 3.00	5.05				
COc1cc2oc3ncc(OCc4ccccc4)c(-c4ccccc4)c3c2c(OC)c1O	6.70	4.87	5.27				
CCNC(=O)c1cnc2oc3ccc(O)cc3c2c1-c1ccccc1	5.68	4.78		ND(Insoluble)			
COc1ccc2oc3ncc(OCc4ccccc4)c(-c4ccccc4)c3c2c1		4.60					
